# In patent US20260209175A1, “PHARMACEUTICALLY ACCEPTABLE 5-METHOXY-N,N-DIMETHYL[…] AND COMPOSITIONS THEREOF” (priority 2022, published 2026):
# Structures can show the parent of a compound that is named as a salt. Where two headings read alike, the source gives them in different places.
# How the values were obtained:
# [1] = Solubility assessments in four different media; type: physicochemical; conditions: for pH after addition of 1 ml media at 37° C. / Observation / pH after addition of 1.5 ml media at 37° C.: 250 mg per vial; for solubility relative to other salts: comparison of the salt forms
# Procedure: Solubility assessments of 5-MeO-DMT oxalate, hydrobromide fumarate and benzoate were performed in four different media: […]
# [2] = Dynamic Vapor Sorption (DVS) analysis of salts, with XRPD of the post-DVS sample; type: physicochemical
# Procedure: XRPD diffractograms were acquired using Bruker D2 Phaser diffractometer equipped with LYNXEYE detector. Samples were prepared using a zero-background sample holder. The samples were scanned from 5 to 32° (2θ) using a step size of 0.02° and a time per step of 0.13 second whilst spinning the sample. Diffractograms were plotted using the EVA program from Bruker.
# DVS analyses were performed on TA Instrument DVS Q5000. Samples were added to a pre-tared metallised quartz crucible and run at 25° C. from 40% RH to 90% RH, down to zero and back to 40%. This cycle was repeated in increments of 10% RH.
# [3] = type: physicochemical; conditions: 40° C./75% RH, three days
# Procedure: Salt screening studies with 24 selected counter-ions were performed to determine if 5-MeO-DMT free base is amenable to salt formation. […] Salts were examined by XRPD, TGA, DSC, 1H NMR and some by DVS analyses. Short term physical stability was examined by storage of salts at 40° C./75% RH for three days.
# Physical stability stress tests were conducted on generated crystalline salts at controlled temperature and relative humidity. The powder samples were stored at 40° C./75% RH for three days. After this time samples were analysed by XRPD to see whether the physical state of salts changed during the storage.
# [4] = Dissolution rate in simulated nasal fluid (UV-fiber optic dissolution apparatus); type: physicochemical; conditions: 5 mg in 5 mL simulated nasal fluid, 37° C., 150 RPM
# Procedure: The dissolution rate was determined using a method comprising the use of a UV-fiber optic-based dissolution apparatus (one such suitable device is the Rainbow® Dynamic Dissolution Monitor by Pion Inc) and simulated nasal fluid. The simulated nasal fluid comprises 7.45 g/L NaCl, 1.29 g/L KCl, 0.32 g/L CaCl2×2H2O and deionised water.
# The dissolution apparatus was set up with a 2 mm probe to measure the dissolution rate. 5 mg of the salt form was transferred into 5 mL of simulated nasal fluid, heated to a constant temperature of 37° C. and stirred at 150 RPM using a crossed stirrer bar. Measurements were taken at 3 s intervals for 130 intervals followed by 60 measurements taken at 10 s intervals for a total time of 16 minutes and 30 s. Detection of dissolution is by UV absorbance.
# [5] = Thermo-Gravimetric Analysis (TGA), thermal stability; type: physicochemical; conditions: 10° C./min ramp; for thermally stable up to (TGA): nitrogen
# Procedure: TGA thermograms were obtained with a TA Instrument Discovery 550 in Al pans. The heating rate used was 10° C./min linear ramp from 25 to 400° C. with a nitrogen purging at a rate of 60 ml/min. TGA thermograms were analysed using TRIOS software.
# [6] = Oxalate salt solubility by HPLC; type: physicochemical; conditions: pH 1.2 medium, simulated gastric fluid, thermodynamic from solid, mother liquors adjusted to the desired pH, read-out: Solubility (mg/mL) of free base
# Procedure: The benzoate salt has a solubility of, at least, 100 mg/ml. The calibration curve of the free base was prepared between 0.031-0.500 mg/ml and can be seen in FIG. 172.
# Mother liquors were adjusted to the desired pH before HPLC quantification.
# [7] = salt screen / scale-up batches, DVS at 25° C
compound,measurement,setting,value
"Br.COc1ccc2[nH]cc(CCN(C)C)c2c1 [Hydrobromide salt, 5-MeO-DMT hydrobromide]",pH after addition of 1 ml media at 37° C.,[1]; SNF,8.13
same,Observation,"[1]; SNF, 1 ml media at 37° C.",Clear solution
same,solubility relative to other salts,[1],high solubility
same,pH after addition of 1 ml media at 37° C.,[1]; pH 1.2 buffer,8.09
same,Observation,"[1]; pH 1.2 buffer, 1 ml media at 37° C.",Clear solution
same,pH after addition of 1 ml media at 37° C.,[1]; pH 4.5 buffer,7.65
same,Observation,"[1]; pH 4.5 buffer, 1 ml media at 37° C.",Clear solution
same,pH after addition of 1 ml media at 37° C.,[1]; pH 6.8 buffer,7.82
same,Observation,"[1]; pH 6.8 buffer, 1 ml media at 37° C.",Clear solution
same,solid form after DVS (XRPD post DVS),[2]; salt produced during scale-up,no change in crystalline form
same,hygroscopicity classification,[2]; [7],non-hygroscopic
same,crystalline form by XRPD after storage,[3],No change in crystalline form
same,dissolution rate,[4],almost instantaneous
same,thermally stable up to (TGA),[5],220 °C
"COc1ccc2[nH]cc(CCN(C)C)c2c1 [Tartrate salt, 5-MeO-DMT tartrate]",total water (moisture) uptake between 0% RH and 90% RH,[2]; 25° C,approximately 3.3 % w/w
same,"sorption/desorption behaviour (reversibility, hysteresis)","[2]; DVS isotherm, 25° C",reversible and overlap
same,solid form after double-cycle DVS experiment (XRPD),[2]; Example 3 Pattern 1 batches,unchanged
same,total reversible mass change between 0-90% RH,[2]; Example 3 Pattern 1 batches,0.6 wt. %
same,hygroscopicity classification,"[2]; Example 3 Pattern 1 batches, 0-90% RH",slightly hygroscopic (Pharmaceuticals that pick up between 0.2% and 2.0% moisture at 80% RH are considered slightly hygroscopic)
same,hygroscopicity classification,[2]; [7],moderately hygroscopic (Pharmaceuticals that pick up between 2.0% and 15.0% moisture at 80% RH are considered moderately hygroscopic)
same,hygroscopicity classification,"[2]; salt screen / scale-up batches, DVS at 25° C, listed as tartrate salt",moderately hygroscopic (Pharmaceuticals that pick up between 2.0% and 15.0% moisture at 80% RH are considered moderately hygroscopic)
same,solid form after DVS (XRPD post DVS),[2]; salt screen batches,did not undergo any solid form transformation
same,crystalline form by XRPD after storage,[3],No change in the crystalline form
same,onset of decomposition / mass loss (TGA),[5],175 °C
same,thermally stable up to (TGA),[5],around 170 °C
"COc1ccc2[nH]cc(CCN(C)C)c2c1 [Oxalate salt, 5-MeO-DMT oxalate]",pH after addition of 1.5 ml media at 37° C.,[1]; SNF,2.13
same,Observation,"[1]; SNF, 1.5 ml media at 37° C.",Suspension
same,solubility relative to other salts,[1],lowest solubility
same,pH after addition of 1.5 ml media at 37° C.,[1]; pH 1.2 buffer,1.87
same,Observation,"[1]; pH 1.2 buffer, 1.5 ml media at 37° C.",Suspension
same,pH after addition of 1.5 ml media at 37° C.,[1]; pH 4.5 buffer,3.05
same,Observation,"[1]; pH 4.5 buffer, 1.5 ml media at 37° C.",Suspension
same,pH after addition of 1.5 ml media at 37° C.,[1]; pH 6.8 buffer,3.45
same,Observation,"[1]; pH 6.8 buffer, 1.5 ml media at 37° C.",Suspension
same,solid form after DVS (XRPD post DVS),[2],no change in the crystalline form
same,solubility,[6],19 mg/mL
same,dissolution rate,[4],prolonged
